The values that follow are results of earlier work, collected in patent US20170094967A1, “OIL PALM FRUIT APPLICATION METHODS” (Valent BioSciences Corporation, priority 2015, published 2017).

This series deals with oil palms. Particulars: applied before harvest directly to the fruit.

The structures appear in SMILES notation.

As to `NCCO/C=C/[C@H](N)C(=O)O` (stereo in doubt) [AVG, [S]-trans-2-amino-4-(2-aminoethoxy)-3-butenoic acid], the “oil yield of oil palm fruit” value is on record as “increases the oil yield”.

In the case of `CC1=CC1` [1-MCP, 1-methylcyclopropene], the “oil yield of oil palm fruit” value is recorded as “increases the oil yield”.
